Measurements from patent publication EP4813979A1, “COMPOUND FOR EGFR PROTEIN DEGRADATION AND USE THEREOF” (TYK Medicines, Inc., priority 2023, dated 2025).

What was measured:
A431 = test: Cell anti-proliferation experiment (CTG); format: cell-based; conditions: Homo sapiens, A431 (wild-type EGFR)
Method in brief: (§1)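 Cells were seeded at 1500–2500/well and dosed after ~24 h with compound in a 1:4 dilution series up to 10,000 nM, in triplicate. Viability was read by CTG luminescence after 72 h, normalized to the 0.1% DMSO control and medium blank, and IC50 was obtained by curve fitting.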

A549 = test: Cell anti-proliferation experiment (CTG); format: cell-based; conditions: Homo sapiens, A549 (wild-type EGFR)
Method in brief: as §1

[1] = tested on: Baf3-19del- T790M -C797S (Baf3-DTC); test: Cell anti-proliferation experiment (CTG); format: cell-based
Method in brief: as §1

[2] = tested on: Baf3-L858R-T790M - C797S (Baf3-LTC); test: Cell anti-proliferation experiment (CTG); format: cell-based
Method in brief: as §1

H1975 = test: Cell anti-proliferation experiment (CTG); format: cell-based; conditions: Homo sapiens, H1975 (EGFR T790M/L858R)
Method in brief: as §1

HCC827 = test: Cell anti-proliferation experiment (CTG); format: cell-based; conditions: Homo sapiens, HCC827 (exon 19 deletion)
Method in brief: as §1

PC-9 = test: Cell anti-proliferation experiment (CTG); format: cell-based; conditions: Homo sapiens, PC-9 (EGFR exon 19 deletion)
Method in brief: as §1

[3] = Pharmacokinetic test of CD-1 mice; format: in vivo; set-up: AUC(0-t) / AUC(0-inf): concentration or dose not given beside the values; conditions: male CD-1 mice, single oral gavage (PO), plasma
Description: Plasma was collected from male CD-1 mice after a single gavage administration of the test substance. The plasma was then analyzed to calculate pharmacokinetic parameters.
The solvent is 5% DMSO + 10% Solutol HS-15 + 85% Saline.
Formulation preparation process: Accurately weighed the compound powder, added appropriate volumes of DMSO, Solutol and physiological saline in sequence, and vortexed sonicate at each step to finally form a homogeneous formulation solution.
Experimental animals were housed in the SPF-grade animal facility of Suzhou Xihua New Drug Development Co., Ltd. (License No.: SYXK(Su)2021-0019). Animals were fed normally for at least 3 days after purchase before the experiment, and each mouse was marked with a tail tag. Animals in the oral administration group were fasted overnight the day before administration, and were resumed feeding 4 hours later, with free access to water. Table 4. Sources and Number of Experimental Animals […]
Before administration, checked the state of the administration formulation and ensured its homogeneity by vortexing, stirring or shaking. Calculated the theoretical administration volume for each CD-1 mouse in each group according to the following formula. Theoretical administration volume (mL); = (Dose (mg⋅kg^−1))/(formulation concentration (mg⋅mL^−1)) × animal body weight (kg) [formula]
Table 5 Sample Collection Information
The collected blood was placed in test tubes containing the anticoagulant EDTA-K2 (15 % EDTA-K2 solution), stored on moist ice, and centrifuged within 45 min (1,500 g, 2-8 °C, 10 min). Plasma was then collected. The plasma was stored in pre-chilled centrifuge tubes, flash-frozen on dry ice, and subsequently stored in an ultra-low temperature freezer at -60 °C or lower until shipment.
A quantitative detection method for the analyte was established using Shimadzu liquid chromatography and Triple Quad™ 6500+AB mass spectrometry. The concentration of the parent drug in plasma was analyzed. The analytical results were controlled for variation using quality control samples, with the accuracy of the quality control samples expected to be between 80% and 120%.
The main pharmacokinetic parameters were calculated using a non-compartmental model in Winnonlin Phoenix software. These parameters included the area under the curve (AUC(0-t) and AUC(0-∞)), elimination half-life (T1/2), maximum plasma concentration (Cmax ), and time to reach maximum plasma concentration (Tmax).

[4] = A-431, 72 h, number after the class symbol
[5] = A549, 72 h, number after the class symbol
[6] = 72 h, number after the class symbol
[7] = NCI-H1975, 72 h, number after the class symbol
[8] = HCC827, 72 h, number after the class symbol
[9] = PC-9, 72 h, number after the class symbol

| SMILES | IC50 (A431; A-431, 72 h, class symbol) | IC50 (A431; [4]) | IC50 (A549; A549, 72 h, class symbol) | IC50 (A549; [5]) | IC50 ([1]; 72 h, class symbol) | IC50 [1, 6] | IC50 ([2]; 72 h, class symbol) | IC50 [2, 6] | IC50 (H1975; NCI-H1975, 72 h, class symbol) | IC50 (H1975; [7]) | IC50 (HCC827; HCC827, 72 h, class symbol) | IC50 (HCC827; [8]) | IC50 (PC-9; PC-9, 72 h, class symbol) | IC50 (PC-9; [9]) | further results |
| --- | --- | --- | --- | --- | --- | --- | --- | --- | --- | --- | --- | --- | --- | --- | --- |
| CCc1cc(Nc2ncc(Cl)c(Nc3ccccc3P(C)(C)=O)n2)c(OC)cc1N1CC2(CCN(C(=O)CN3CCC(c4cc5c(cc4F)c(N4CCC(=O)NC4=O)nn5C)C(F)(F)C3)CC2)C1 (stereo not drawn) [TA-023] | > 1 µM | 1.18 µM | > 1 µM | 1.26 µM | 0.1 to 1 µM | 0.202 µM | < 0.01 µM | 0.0084 µM | 0.01 to 0.1 µM | 0.0147 µM | 0.1 to 1 µM | 0.593 µM | 0.1 to 1 µM | 0.461 µM | – |
| CCc1cc(Nc2ncc(Cl)c(Nc3ccccc3C(=O)NC)n2)c(OC)cc1N1CCN(C(=O)CN2CCC(c3cc4c(cc3F)c(N3CCC(=O)NC3=O)nn4C)C(F)(F)C2)CC1 (stereo not drawn) [TA-003] | – | – | – | – | – | – | – | – | – | – | – | – | – | – | IC50 (A431; A-431, 72 hours, class symbol): > 1 µM; IC50 (A549; 72 hours, class symbol): > 1 µM; IC50 ([1]; 72 hours, class symbol): 0.1 to 1 µM; IC50 ([2]; 72 hours, class symbol): 0.1 to 1 µM; IC50 (H1975; NCI-H1975, 72 hours, class symbol): < 0.01 µM; IC50 (HCC827; 72 hours, class symbol): > 1 µM; IC50 (PC-9; 72 hours, class symbol): > 1 µM; HL_ [3]: 2.45 h; AUC(0-inf) ([3]; mouse): 20700 ng·h/mL; AUC(0-t) ([3]; mouse): 20600 ng·h/mL; Cmax ([3]; mouse): 3410 ng/mL; MRT last ([3]; mouse): 5.11 h; Tmax ([3]; mouse): 4 h |
| COc1cc(N2CCC(CN3CCN(c4ccc5c(c4)C(=O)N(C4CCC(=O)NC4=O)C5=O)CC3)CC2)c(-c2cnn(C)c2)cc1Nc1ncc(Br)c(Nc2ccc(C3CC3)cc2P(C)(C)=O)n1 (stereo not drawn) [DZL-1, reference compound] | > 1 µM | > 5 µM | > 1 µM | > 5 µM | 0.01 to 0.1 µM | 0.0145 µM | 0.01 to 0.1 µM | 0.0136 µM | 0.01 to 0.1 µM | 0.0548 µM | 0.1 to 1 µM | 0.105 µM | 0.1 to 1 µM | 0.205 µM | – |
| CCc1cc(Nc2ncc(Cl)c(Nc3ccccc3P(C)(C)=O)n2)c(OC)cc1N1CCN(C(=O)CN2CCC(c3cc4c(cc3F)c(N3CCC(=O)NC3=O)nn4C)CC2)CC1 [TC-213] | > 1 µM | 1.34 µM | > 1 µM | 1.77 µM | < 0.01 µM | 0.0089 µM | < 0.01 µM | 0.0008 µM | 0.01 to 0.1 µM | 0.0359 µM | 0.01 to 0.1 µM | 0.053 µM | 0.1 to 1 µM | 0.505 µM | – |
| CCc1cc(Nc2ncc(Cl)c(Nc3ccccc3P(C)(C)=O)n2)c(OC)cc1N1CCN(C(=O)CN2CCC(c3cc4c(cc3F)c(N3CCC(=O)NC3=O)nn4C)C(F)(F)C2)CC1 (stereo not drawn) [TC-157] | > 1 µM | 1.65 µM | 0.1 to 1 µM | 0.948 µM | < 0.01 µM | 0.0041 µM | < 0.01 µM | 0.0041 µM | 0.01 to 0.1 µM | 0.024 µM | 0.1 to 1 µM | 0.812 µM | 0.1 to 1 µM | 0.349 µM | – |
